The target of this test is T1, Glucocorticoid receptor (Homo sapiens, UniProt P04150).
T1 sequence (P04150 whole entry): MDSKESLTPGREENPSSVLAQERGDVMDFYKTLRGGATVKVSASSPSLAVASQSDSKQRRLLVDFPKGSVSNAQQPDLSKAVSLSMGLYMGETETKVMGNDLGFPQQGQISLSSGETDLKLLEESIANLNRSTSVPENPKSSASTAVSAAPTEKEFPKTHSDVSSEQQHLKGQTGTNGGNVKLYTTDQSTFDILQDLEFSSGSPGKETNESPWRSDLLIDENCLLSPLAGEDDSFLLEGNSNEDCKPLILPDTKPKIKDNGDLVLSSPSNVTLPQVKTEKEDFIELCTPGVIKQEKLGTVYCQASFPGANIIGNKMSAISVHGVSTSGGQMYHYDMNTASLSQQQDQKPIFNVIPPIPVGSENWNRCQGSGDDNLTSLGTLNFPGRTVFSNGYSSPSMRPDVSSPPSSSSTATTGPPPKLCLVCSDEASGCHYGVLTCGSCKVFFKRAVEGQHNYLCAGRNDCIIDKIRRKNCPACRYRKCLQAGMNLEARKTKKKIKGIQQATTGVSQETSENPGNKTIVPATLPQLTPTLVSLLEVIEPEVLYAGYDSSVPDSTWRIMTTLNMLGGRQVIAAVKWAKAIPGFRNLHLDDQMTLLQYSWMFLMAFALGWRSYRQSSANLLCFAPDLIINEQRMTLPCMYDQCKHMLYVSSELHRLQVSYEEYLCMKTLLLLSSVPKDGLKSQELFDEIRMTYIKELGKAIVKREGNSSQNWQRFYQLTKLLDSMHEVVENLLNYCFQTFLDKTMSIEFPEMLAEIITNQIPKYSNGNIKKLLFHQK
Nature of the test: Displacement of [3H]dexamethasone from GST-tagged human glucocorticoid receptor ligand binding domain after 4 hrs by liquid scintillation counting.

As to `Cc1cn(-c2ccc(CNS(=O)(=O)c3cc(F)ccc3F)cc2)c(C)n1`, the IC50 is 2190 nM.
